Reference: the NIST ThermoML archive (doi:10.1021/je020113t)
Numbers after ± are expanded uncertainties.

Details: visual observation

Normal melting temperature (Crystal) [°C]	Normal melting temperature (Crystal 1) [°C]	Compound
89.10 ± 0.5		c1c[nH]cn1 [1H-imidazole]
38.4 ± 0.5		Cc1nccn1C [1,2-dimethyl-1H-imidazole]
	146 ± 0.5	Cc1ncc[nH]1 [2-methylimidazole]
